Experimental data reported in patent publication US10485769B2, “Cholesteryl ester transfer protein (CETP) inhibition in the treatment of cancer” (KING ABDULLAH UNIVERSITY OF SCIENCE AND TECHNOLOGY, priority 2015, dated 2019).
Like-named read-outs stand apart in the source and are kept apart here.

Tests used:
[1] = system: MCF-7 CETP siRNA cells; assay: Total cholesterol in CETP knock-out MCF-7 cells, Amplex Red; type: cell-based, human; settings: 10 μM
Procedure: FIG. 8: Levels of total cholesterol in MCF-7 control (cntl) siRNA and CETP knock-out cells after treatment with 10 μM PL or AP were determined with the Amplex Red assay kit. Values represent the means±SD of three independent experiments.
We measured the amount of cholesterol in CETP knock-out MCF-7 untreated and/or treated with 10 μM AP and PL. […] (FIG. 8).

[2] = system: MCF-7 cells; assay: Total cholesterol in cells, Amplex Red Cholesterol kit; type: cell-based, human; settings: 10 μM, within 2 h, compared to untreated cells
Procedure: FIG. 5: Cholesterol depletion by PL and AP. BJ, BT20 and MCF-7 cells were treated with 10 μM PL or AP for 2 h and cholesterol levels were determined with the Amplex Red Cholesterol kit as per manufacturer's instructions. Cells treated with 5 mg/ml MBCD was used as a positive control and fluorescence was measured with a Tecan plate reader. MCF-7 cells were pre-incubated with 1 mM cholesterol for 1 h followed by treatment with 10 μM PL or AP for 2 h (A). Apoptosis was determined by flow cytometry with the APOPercentage kit or Cells treated with MBCD and 5 mM H2O2 served as positive controls (B). Values represent the means±SD of three independent experiments.
Next, we determined the effects of PL and AP on cholesterol levels in cells. Within 2 h of treatment with PL or AP, total cholesterol was reduced by 35% in MCF-7 cells as compared to untreated cells (FIG. 5). To test whether cholesterol depletion occurred in other cell types or if this was limited to ER positive BC cells, BJ and BT20 cells were also treated with PL or AP (Fig.).

[3] = molecular target: T1, CETP (Homo sapiens, UniProt P11597); assay: Thermal shift assay (TSA) in MCF-7 cells; type: binding; settings: 10 μM, two hours, 56° C. to 70° C.; untreated decreases around 64° C.
T1 construct: endogenous in cells; host or cells: MCF-7
T1 sequence (P11597 18-493): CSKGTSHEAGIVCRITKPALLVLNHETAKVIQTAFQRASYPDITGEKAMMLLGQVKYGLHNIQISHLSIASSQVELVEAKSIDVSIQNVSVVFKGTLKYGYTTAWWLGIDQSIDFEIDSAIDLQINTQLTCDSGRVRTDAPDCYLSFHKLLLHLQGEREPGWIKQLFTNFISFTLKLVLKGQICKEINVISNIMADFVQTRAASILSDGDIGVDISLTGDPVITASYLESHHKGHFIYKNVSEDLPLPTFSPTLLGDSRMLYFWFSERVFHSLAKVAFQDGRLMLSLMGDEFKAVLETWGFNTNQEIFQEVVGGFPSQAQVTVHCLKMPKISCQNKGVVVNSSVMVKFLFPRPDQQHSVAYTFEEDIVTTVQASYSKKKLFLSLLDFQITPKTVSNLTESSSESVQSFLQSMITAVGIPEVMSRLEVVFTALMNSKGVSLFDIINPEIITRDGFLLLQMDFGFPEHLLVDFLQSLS
Procedure: FIG. 14: Illustration of the amount of stabilized CETP protein in the presence of compounds using TSA. MCF-7 cells were left untreated (Untx) and were treated with 10 μM of AP/PL for two hours. TSA was performed using temperature range 56° C. to 70° C. with 2° C. intervals. The western blotting was performed after the assay and CETP was detected. The experiment was performed in duplicate.
Thermal shift assay (TSA) captures the drug protein binding using the fact that the thermostability of the protein is changed after ligand binding. We did three runs of TSA [20] to identify direct binding of AP with CETP (FIG. 14). […] Further studies are needed to study the effects of thermostability on function of CETP.

[4] = system: BJ CETP knockdown cells; assay: Apoptosis in BJ CETP knockdown cells; type: cell-based, human; settings: 10 μM PL or AP
Procedure: FIG. 10: The effect of CETP mRNA silencing on MMP (A), Capase-3/7 activity (B) and apoptosis in MCF-7 (C) and BJ (D) untransfected, cntl siRNA and CETP knockout cells after treatment with 10 μM PL or AP. Values represent the means±SD of three independent experiments.
Next, we intended to see if CETP silencing increased sensitivity of MCF-7 cells to apoptosis.

[5] = system: lipid rafts of MCF-7 cells; assay: Lipid raft GM1 staining (CT-B Alexa 488); type: cell-based, human; settings: 10 μM, over time (10 min to 2 h)
Procedure: FIG. 4: Lipid raft GM1 staining in MCF-7 cells with the Vybrant® Alexa Fluor® 488 Lipid Raft Labeling Kit. Cells were cultured in 96-well plates and stained with CT-B Alexa 488 in untreated cells, and after treatment with 10 μM PL or AP for 10 min, 30 min, 1 h and 2 h.
Cholesterol plays an integral role in the formation of lipid rafts, steroid hormone synthesis and cell membrane formation. […] Cancer cells have a greater affinity for cholesterol to pace with demands of proliferation and synthesis of new membranes and lipid rafts. Pathway predictions derived from microarray expression data pointed at the impairment of cholesterol related processes by AP. To confirm whether cholesterol related pathways were affected by PL or AP, we performed lipid raft staining in MCF-7 cells and cholesterol quantitation in both MCF-7 cells and plasma samples obtained from mice. […].

[6] = system: BJ cells; assay: BJ cell morphology on treatment (lipid raft staining experiment); type: cell-based, human
[7] = Toxicity in MCF-7 xenograft nude mice (survival, body weight, ALT, AST); settings: for survival of animals: 5 animals per group
Procedure: FIG. 3: Comparative efficacy and toxicity study in MCF-7 xenograft nude mouse model of BC. The efficacy of single i.p. injection of vehicle, PL (2 mg/kg) and AP (5 mg/kg) in 5 mice in each group was compared over a period of 21 days.
MCF-7 tumors grown up to 300 mm3 in four nude mice were harvested, dissected into 1-2 mm3 fragments and implanted into the study group for further testing. Nude mice (with tumor volume of 150 mm3) were treated with 25% Polyethylene glycol (PEG) 400 as vehicle, 2 mg/kg PL and 5 mg/kg AP for 21 days during which tumor volume, body weight and, at the time of sacrifice, tumor weight was measured.

[8] = system: CETP; assay: CETP mRNA in mice tumor samples, qRT-PCR; type: in vivo; settings: 2 mg/kg PL, 5 mg/kg AP
Procedure: FIG. 7: Levels of CETP mRNA in tumor (A) and protein in serum (B) in mice tumor samples after treatment with 2 mg/kg PL or 5 mg/kg AP were determined with the RT-PCR and western blotting, respectively. Fold change in expression of serum protein was determined using densitometry analysis of western blots using ImageJ (C). CETP activity in serum was estimated using CETP activity kit (name of kit/manufacturer) (D). Values represent the means±SD of three independent experiments. * where p≤0.05, and ** where p≤0.005.
We performed qRT-PCR using mRNA isolated from mice tumor samples to determine the expression of CETP after treatment with PL and AP (FIG. 7A). […] CETP mRNA is translated into 74 kD protein comprised of 476 amino acids that localizes in plasma. […] CETP protein levels in mice serum samples were determined by western blotting (FIG. 7B).

[9] = 2 mg/kg PL, 5 mg/kg AP, 21 days

| SMILES | total cholesterol in knock-out cells versus control siRNA cells [1] | reduction of total cholesterol [2] [%] | thermostability of CETP protein [3] | sensitivity to apoptosis [4] | distribution of lipid rafts (GM1 in plasma membranes) [5] | effects on BJ cell morphology ([6]; treated with PL or AP) | survival of animals [7, 9] | reduction of ALT activity ([7]; 5 mg/kg AP) [%] | reduction of AST activity ([7]; 5 mg/kg AP) [%] | body weight ([7]; 5 mg/kg AP, 21 days) | reduction of CETP expression in tumors (mRNA) [8] | effects on BJ cell morphology [6] | ALT activity ([7]; 2 mg/kg PL) | AST activity ([7]; 2 mg/kg PL) | mice succumbed to treatment due to toxicity ([7]; 5 mg/kg PL, within four to six days) [mice] |
| --- | --- | --- | --- | --- | --- | --- | --- | --- | --- | --- | --- | --- | --- | --- | --- |
| CC(=O)Oc1cccc2c1C(=O)C=C(C)C2=O [AP, Acetyl Plumbagin] | did not show results any different | 35 | more stable even at 70 °C | no increased sensitivity to apoptosis | disrupted | no adverse effects | survived | 36 | 7 | remained unaffected | 60% | – | – | – | – |
| CC1=CC(=O)c2c(O)cccc2C1=O [PL, 5-hydroxy-2-methyl-1,4-naphthoquinone, reference compound] | did not show results any different | 35 | more stable even at 70 °C | no increased sensitivity to apoptosis | disrupted | – | one mouse died | – | – | – | no effect | no adverse effects | increased | increased | 8 |
